Results taken from patent publication US20250082625A1, “NOVEL THERAPY” (priority 2016, published 2025).
Where no end group is shown, it is not given here.

Tests used:
HTB-9 cells [1] = assay: Pre-treatment of HTB-9 bladder epithelial cells before CY17 infection (confocal imaging, ELISA); type: cell-based, human; details: for IL-1β secretion (ELISA, culture supernatants) / SP secretion (ELISA, culture supernatants): pre-treated before CY17 infection
Procedure: (§1) Cells were grown on 8-well chamber slides (6×10^4 cells/well, Thermo Fischer Scientific) or in 6-well plates (6×10^5 cells/well) for 16 hours in media supplemented with 10% FBS. Media were removed, and cells were washed with PBS before adding medium without FBS. Cells were infected with bacteria diluted to appropriate concentration in PBS and incubated for one or four hours at 37° C. with 5% CO2.
(§2) The two cell types were first infected with increasing concentrations of the acute cystitis strain E. coli CY-17 (10^2-10^4 cfu/ml) for 1 to 4 hours. NK1R and SP expression was used as a read out of the cellular response. […] A concentration of 10^4 cfu/ml of CY-17 and four hours of infection was chosen for further studies. Under these conditions, there was little cytotoxicity. To further characterize the neuropeptide response to bladder infection, the in vitro analysis was extended to include GALR2, OrxR2 and TAS2R43. Confocal microscopy was used in this instance. Infected cells were fixed (3.7% formaldehyde, 15 min), permeabilized (0.25% triton X-100, 5% FBS, 10 min), blocked (5% FBS, 1 h at RT), incubated overnight with primary antibodies in 5% FBS: Anti-NK1R (1:100, SC-15323, Santa Cruz), anti-SP, (1:200, ORB11399, Biorbyt), anti-orexin receptor 2, (1:200, AB10470, Abcam), anti-TAS2R43, (1:200, AB65513, Abcam), and anti-GALR2 antibodies (1:100, AB136264, Abcam). Appropriate fluorescently labeled secondary antibodies were used (Alexa Fluor® 488 goat anti-rabbit IgG, A-11034; Life Technologies, (1 hour at Room Temperature). After nuclear staining (DRAQ5, 1:1000, Abcam) slides were mounted (Fluoromount, Sigma-Aldrich), imaged by laser scanning confocal microscopy (MSM510 META confocal microscope, Carl Zeiss) and quantified by ImageJ software 1.46r (NIH).
(§3) HTB-9 cells and differentiated SH-SY5Y cells were pre-treated with SR140333, or IL-1RA Anakinra (500 ng/ml) for 30 minutes before infection with CY17 (10^4 cfu/ml, four hours), or treatment with exogenous recombinant SP (R&D System) or IL-1β (Abnova) (20 ng/ml, four hours). After infection, cells were infected with CY17 and the NK1R, SP and IL-1β response was quantified by confocal imaging. IL-1β- and SP secretion was quantified by ELISA, in culture supernatants. In nerve- and bladder epithelial cells, SR140333 inhibited the SP/NK1R response to infection, consistent with an autocrine activation loop involving SP/NK1R as shown by confocal imaging (FIG. 10a). […] SP activated IL-1β expression and secretion in bladder epithelial cells but had no effect on IL-1β on nerve cells. (*=P<0.05, **=P<0.01, ***=P<0.001, Two-tailed t-test for confocal imaging data and Mann-Whitney U-test for ELISAs.
Furthermore, to examine if the effects of NK1R inhibition can be generalized, we used two additional NK1R antagonists (CP99994 and L703.303). HTB-9 cells and differentiated SH-SY5Y cells were pre-treated with SR140333, CP99994, L-703.606 or IL-1RA Anakinra (500 ng/ml) for 30 minutes before infection with CY17 (10^4 cfu/ml, four hours), or treatment with exogenous recombinant SP (R&D System) or IL-1β (Abnova) (20 ng/ml, four hours).

Asc^−/− mice [2] = details: cited from earlier work
[3] = test system: differentiated SH-SY5Y cells; assay: Pre-treatment of differentiated SH-SY5Y nerve cells before CY17 infection (confocal imaging, ELISA); type: cell-based, human
Procedure: as §1, §2, §3
Furthermore, to examine if the effects of NK1R inhibition can be generalized, we used two additional NK1R antagonists (CP99994 and L703.303). […]

Asc^−/− mice [4] = assay: Anakinra treatment of infected Asc^−/− mice (bladder NK1R/SP staining, disease severity); type: in vivo
Procedure: FIG. 8a The mice were pre-treated with interleukin 1 receptor antagonist (IL1-RA) Anakinra, 30 min before infection and daily after infection with E. coli CFT073 (1 mg in 100 μl of PBS i.p. per mouse). FIG. 8b Reduction in NK1R in Anakinra® treated compared to untreated control mice. Bladder tissue sections from infected Asc^−/− mice treated with Anakinra® were stained for NK1R. […] FIG. 8c Reduction in SP staining in Anakinra® treated Asc^−/− mice compared to untreated mice. […] Sections were obtained from 3 mice per group; one of two experiments is shown. *=p<0.05, **=p<0.01, two tailed t-test). FIG. 8d The disease severity score was reduced by the Anakinra (n=3-4, ***P<0.001, compared to untreated Asc^−/− mice, Fisher's exact test, Reference for (d):.
To confirm the importance of Il1b for the neuropeptide response, susceptible Asc^−/− mice were treated with the IL-1 receptor (IL-1R) antagonist Anakinra® (FIG. 8a). This therapeutic approach was recently shown to be effective against acute cystitis, as Anakinra® attenuated the hyper-inflammatory response to infection and prevented bladder pathology in susceptible mice.
These findings were confirmed in vitro by pretreating nerve cells and bladder epithelial cells with Anakinra (500 ng/ml) followed by CY-17 infection (10^4 CFU/ml, 4 hours).

HTB-9 cells [5] = assay: Treatment of HTB-9 bladder epithelial cells with exogenous recombinant SP or IL-1β; type: cell-based, human; details: four hours
Procedure: as §3

[6] = test system: differentiated SH-SY5Y cells; assay: Treatment of differentiated SH-SY5Y nerve cells with exogenous recombinant SP or IL-1β; type: cell-based, human; details: four hours
Procedure: as §3

[7] = susceptible mice, recently shown
[8] = infected Asc^−/− mice, 1 mg in 100 μl PBS i.p. 30 min before and daily after infection, vs infected controls without therapy
[9] = exogenous recombinant SP 20 ng/ml

COc1ccccc1CN[C@H]1CCCN[C@H]1c1ccccc1 [CP99994, (2S,3S)-N-[(2-Methoxyphenyl)methyl]-2-phenyl-3-piperidinamine]
IL-1β secretion (ELISA, culture supernatants) (HTB-9 cells [1]): decreased
SP secretion (ELISA, culture supernatants) (HTB-9 cells [1]): decreased

Ic1ccccc1CN[C@@H]1C2CCN(CC2)[C@@H]1C(c1ccccc1)c1ccccc1 [L703.606, (2R,3R)-2-benzhydryl-N-[(2-iodanylphenyl)methyl]-1-azabicyclo[2.2.2]octan-3-amine]
IL-1β secretion (ELISA, culture supernatants) (HTB-9 cells [1]): decreased
SP secretion (ELISA, culture supernatants) (HTB-9 cells [1]): decreased

Anakinra: interleukin 1 receptor antagonist (IL1-RA) Anakinra
disease severity score (Asc^−/− mice [2]; compared to untreated Asc^−/− mice, n=3-4, P<0.001): reduced
bladder pathology (Asc^−/− mice [2]; [7]): prevented
hyper-inflammatory response to infection (Asc^−/− mice [2]; [7]): attenuated
NK1R staining ([3]; Anakinra 500 ng/ml pretreatment, CY-17 infection (10^4 CFU/ml, 4 hours)): marked reduction
SP/NK1R response to infection (confocal imaging) ([3]; pre-treated 30 minutes before CY17 (10^4 cfu/ml, four hours)): no effect
IL-1β secretion (ELISA, culture supernatants) (HTB-9 cells [1]): inhibited
NK1R expression / staining (HTB-9 cells [1]; pretreatment prior to CY17 infection (10^4 CFU/ml, 4 hours)): marked reduction
NK1R response (mucosal NK1R staining, bladder sections) (Asc^−/− mice [4]; [8]): marked reduction
SP response (mucosal SP staining, bladder sections) (Asc^−/− mice [4]; [8]): marked reduction
baseline NK1R staining (Asc^−/− mice [4]; uninfected mice): reduced
baseline SP staining (Asc^−/− mice [4]; uninfected mice): reduced

IL-1β: exogenous recombinant IL-1β (Abnova)
SP/NK1R expression (HTB-9 cells [5]; exogenous IL-1β 20 ng/ml): increased
SP/NK1R expression ([6]; exogenous IL-1β 20 ng/ml): increased

SP: exogenous recombinant SP (R&D System), ligand of NK1R (RPKPQQFFGLM-NH2; ends and bridges not checked; UniProt P20366 58-68, looked up)
IL-1β expression and secretion (HTB-9 cells [5]; [9]): activated
IL-1β [6, 9]: no effect
